ChEMBL document CHEMBL2390830 (Eur J Med Chem, 2013)
Structures can show the parent of a compound that is named as a salt.

How the values were obtained:
[1] = target: T1, 5-hydroxytryptamine receptor 1A (Rattus norvegicus, UniProt P19327); assay: Displacement of [3H]8-OH-DPAT from 5-HT1A receptor in Wistar rat cerebral hippocampus membrane after 10 mins; type: tissue-based; conditions: read-out: Ki(app)
T1 sequence (P19327 whole entry): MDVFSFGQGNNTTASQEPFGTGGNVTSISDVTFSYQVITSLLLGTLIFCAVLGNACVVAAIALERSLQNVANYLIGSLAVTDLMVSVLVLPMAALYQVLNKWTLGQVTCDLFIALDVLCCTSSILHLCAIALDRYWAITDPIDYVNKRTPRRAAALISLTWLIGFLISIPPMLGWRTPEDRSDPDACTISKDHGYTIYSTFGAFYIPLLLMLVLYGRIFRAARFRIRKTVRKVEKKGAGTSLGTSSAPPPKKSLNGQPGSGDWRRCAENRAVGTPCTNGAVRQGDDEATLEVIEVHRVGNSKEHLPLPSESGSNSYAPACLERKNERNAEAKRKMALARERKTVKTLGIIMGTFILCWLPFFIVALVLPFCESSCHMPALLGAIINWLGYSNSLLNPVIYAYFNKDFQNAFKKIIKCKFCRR

[2] = Binding affinity to human PCP receptor by radioligand displacement assay
[3] = target: Voltage-gated L-type calcium channel (Homo sapiens, UniProt Q13936+Q13698+Q01668+O60840); assay: Binding affinity to L-Ca2+ channel verapamil site (unknown origin) by radioligand displacement assay
[4] = Binding affinity to peripheral BZD receptor (unknown origin) by radioligand displacement assay; design: species or system Homo sapiens
[5] = Binding affinity to P2X receptor (unknown origin) by radioligand displacement assay; design: species or system Homo sapiens
[6] = Binding affinity to somatostatin receptor (unknown origin) by radioligand displacement assay; design: species or system Homo sapiens
[7] = Binding affinity to sodium channel site 2 (unknown origin) by radioligand displacement assay; design: species or system Homo sapiens
[8] = Binding affinity to GABA-gated chloride channel (unknown origin) by radioligand displacement assay; design: species or system Homo sapiens
[9] = Binding affinity to human PACAP receptor by radioligand displacement assay
[10] = Binding affinity to P2Y receptor (unknown origin) by radioligand displacement assay; design: species or system Homo sapiens
[11] = target: T2, 5-hydroxytryptamine receptor 2C (Homo sapiens, UniProt P28335); assay: Binding affinity to human 5-HT2C receptor by radioligand displacement assay
T2 sequence (P28335 whole entry): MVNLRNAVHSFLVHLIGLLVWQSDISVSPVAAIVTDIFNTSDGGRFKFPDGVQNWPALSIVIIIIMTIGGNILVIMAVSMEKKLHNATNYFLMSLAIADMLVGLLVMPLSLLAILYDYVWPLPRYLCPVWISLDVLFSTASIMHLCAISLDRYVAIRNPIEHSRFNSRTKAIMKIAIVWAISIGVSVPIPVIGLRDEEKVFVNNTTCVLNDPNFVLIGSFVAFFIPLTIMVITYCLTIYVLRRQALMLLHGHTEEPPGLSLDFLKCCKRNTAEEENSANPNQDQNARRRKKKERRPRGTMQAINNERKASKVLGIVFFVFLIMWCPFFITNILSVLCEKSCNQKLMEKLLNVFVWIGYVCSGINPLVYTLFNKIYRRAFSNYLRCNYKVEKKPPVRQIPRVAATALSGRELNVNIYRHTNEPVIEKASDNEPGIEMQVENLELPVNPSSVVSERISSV

[12] = target: T3, Muscarinic acetylcholine receptor M5 (Homo sapiens, UniProt P08912); assay: Binding affinity to human muscarinic M5 receptor by radioligand displacement assay
T3 sequence (P08912 whole entry): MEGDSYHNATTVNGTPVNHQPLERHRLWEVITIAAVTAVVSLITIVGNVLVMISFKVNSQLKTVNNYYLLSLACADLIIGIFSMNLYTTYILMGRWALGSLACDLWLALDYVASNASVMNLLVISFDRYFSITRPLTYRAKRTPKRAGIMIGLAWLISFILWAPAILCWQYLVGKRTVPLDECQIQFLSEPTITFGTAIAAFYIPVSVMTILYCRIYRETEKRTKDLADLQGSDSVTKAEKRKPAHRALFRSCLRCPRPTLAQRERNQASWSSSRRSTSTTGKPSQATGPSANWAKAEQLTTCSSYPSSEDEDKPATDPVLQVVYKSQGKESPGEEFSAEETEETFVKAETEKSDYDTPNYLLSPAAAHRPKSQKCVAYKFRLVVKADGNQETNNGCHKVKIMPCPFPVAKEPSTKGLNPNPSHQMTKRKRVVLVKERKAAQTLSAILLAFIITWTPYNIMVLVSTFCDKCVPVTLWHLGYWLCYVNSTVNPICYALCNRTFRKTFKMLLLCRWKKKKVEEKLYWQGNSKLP

In the case of `O=C1c2cc3ccccc3nc2CN1CCCCCN1CCN(c2cccc(Cl)c2Cl)CC1`, the Ki [1] is reported as 58 nM.

`C[C@]12N[C@H](Cc3ccccc31)c1ccccc12` [DIZOCILPINE MALEATE] showed an IC50 [2] of 4.3 nM and a Ki [2] of 2.4 nM.

`COc1ccccc1N1CCN(CCCCN2Cc3ccc4ccccc4c3C2=O)CC1` showed a Ki [1] of 13 nM.

With `O=C1c2c(ccc3ccccc23)CN1CCCCN1CCN(c2cccc(Cl)c2Cl)CC1` the Ki [1] was 31 nM.

Work on `COc1ccccc1N1CCN(CCCCCN2Cc3nc4ccccc4cc3C2=O)CC1` yielded a Ki [1] of 20 nM.

With `O=C1c2c(ccc3ccccc23)CN1CCCCCN1CCN(c2cccc(Cl)c2Cl)CC1` the Ki [1] was 490 nM.

For `COc1ccc(CCN(C)CCCC(C#N)(c2cc(OC)c(OC)c(OC)c2)C(C)C)cc1OC` (centres undefined) [GALLOPAMIL], the IC50 [3] was 1.1 ×10⁻⁸ M and the Ki [3] was 5.4 ×10⁻⁹ M.

Work on `CCC(C)N(C)C(=O)c1cc2ccccc2c(-c2ccccc2Cl)n1` (centres undefined) [PK-11195] yielded an IC50 [4] of 0.99 nM and a Ki [4] of 0.89 nM.

`O=C1c2c(c(Cl)nc3ccccc23)CN1CCCCCN1CCN(c2cccc(Cl)c2Cl)CC1` gave a Ki [1] of 878 nM.

In the case of `O=C1c2cc3ccccc3nc2CN1CCCCN1CCN(c2cccc(Cl)c2Cl)CC1`, the Ki [1] is reported as 30 nM.

For `Nc1ncnc2c1ncn2[C@@H]1O[C@H](COP(=O)(O)CP(=O)(O)OP(=O)(O)O)[C@@H](O)[C@H]1O` [DIPHOSPHOMETHYLPHOSPHONIC ACID ADENOSYL ESTER], the IC50 [5] was 2.1 nM and the Ki [5] was 0.97 nM.

`COc1ccccc1N1CCN(CCCN2Cc3ccc4ccccc4c3C2=O)CC1` showed a Ki [1] of 46 nM.

`C[C@H](N)C(=O)NCC(=O)N[C@H]1CSSC[C@@H](C(=O)O)NC(=O)[C@H](CO)NC(=O)[C@H]([C@@H](C)O)NC(=O)[C@H](Cc2ccccc2)NC(=O)[C@H]([C@@H](C)O)NC(=O)[C@H](CCCCN)NC(=O)[C@H](Cc2c[nH]c3ccccc23)NC(=O)[C@H](Cc2ccccc2)NC(=O)[C@H](Cc2ccccc2)NC(=O)[C@H](CC(N)=O)NC(=O)[C@H](CCCCN)NC1=O` [SOMATOSTATIN] gave an IC50 [6] of 0.33 nM and a Ki [6] of 0.2 nM.

With `COc1ccc(C(=O)O[C@H]2CC[C@@]3(C)[C@@H]4CC[C@H]5[C@]6(O)C[C@H](O)[C@@]7(O)[C@@H](CN8C[C@@H](C)CC[C@H]8[C@@]7(C)O)[C@]6(O)C[C@@]53O[C@]24O)cc1OC` [VERATRIDINE] the IC50 [7] was 5200 nM and the Ki [7] was 4700 nM.

Work on `O=C1c2c(c(Cl)nc3ccccc23)CN1CCCCN1CCN(c2cccc(Cl)c2Cl)CC1` yielded a Ki [1] of 31 nM.

Work on `COc1ccccc1N1CCN(CCCCN2Cc3c(Cl)nc4ccccc4c3C2=O)CC1` yielded a Ki [1] of 17 nM.

With `C=C(C)[C@@H]1[C@H]2OC(=O)[C@@H]1[C@]1(O)C[C@H]3O[C@]34C(=O)O[C@H]2[C@]14C` [PICROTOXININ] the IC50 [8] was 120 nM and the Ki [8] was 96 nM.

`CC[C@H](C)[C@H](NC(=O)CNC(=O)[C@H](CC(=O)O)NC(=O)[C@H](CO)NC(=O)[C@@H](N)Cc1cnc[nH]1)C(=O)N[C@@H](Cc1ccccc1)C(=O)N[C@H](C(=O)N[C@@H](CC(=O)O)C(=O)N[C@@H](CO)C(=O)N[C@@H](Cc1ccc(O)cc1)C(=O)N[C@@H](CO)C(=O)N[C@@H](CCCNC(=N)N)C(=O)N[C@@H](Cc1ccc(O)cc1)C(=O)N[C@@H](CCCNC(=N)N)C(=O)N[C@@H](CCCCN)C(=O)N[C@@H](CCC(N)=O)C(=O)N[C@@H](CCSC)C(=O)N[C@@H](C)C(=O)N[C@H](C(=O)N[C@@H](CCCCN)C(=O)N[C@@H](CCCCN)C(=O)N[C@@H](Cc1ccc(O)cc1)C(=O)N[C@@H](CC(C)C)C(=O)N[C@@H](C)C(=O)N[C@@H](C)C(=O)N[C@H](C(=O)N[C@@H](CC(C)C)C(=O)NCC(=O)N[C@@H](CCCCN)C(=O)N[C@@H](CCCNC(=N)N)C(=O)N[C@@H](Cc1ccc(O)cc1)C(=O)N[C@@H](CCCCN)C(=O)N[C@@H](CCC(N)=O)C(=O)N[C@@H](CCCNC(=N)N)C(=O)N[C@H](C(=O)N[C@@H](CCCCN)C(=O)N[C@@H](CC(N)=O)C(=O)N[C@@H](CCCCN)C(N)=O)C(C)C)C(C)C)C(C)C)[C@@H](C)O` showed an IC50 [9] of 0.057 nM and a Ki [9] of 0.049 nM.

With `Nc1ncnc2c1ncn2[C@H]1C[C@H](O)[C@@H](COP(O)(=S)OP(=O)(O)OP(=O)(O)O)O1` (some centres undefined) the IC50 [10] was 45 nM and the Ki [10] was 23 nM.

In the case of `COc1ccccc1N1CCN(CCCN2Cc3nc4ccccc4cc3C2=O)CC1`, the Ki [1] is reported as 104 nM.

Compound `COc1cc(OC)c(C(=O)CCCCN2CCC3(CC2)NC(=O)NC3=O)cc1NS(=O)(=O)c1ccc(C(F)(F)F)cc1` [RS-102,221] has an IC50 [11] of 2.7 nM and a Ki [11] of 0.91 nM.

`COc1ccccc1N1CCN(CCCCN2Cc3nc4ccccc4cc3C2=O)CC1` gave a Ki [1] of 15 nM.

`C[N+]1(C)CCC(OC(=O)C(c2ccccc2)c2ccccc2)CC1` [4-DAMP] showed an IC50 [12] of 0.45 nM and a Ki [12] of 0.22 nM.
